Reference: patent publication US7119090B2, “Pyrrole substituted 2-indolinone protein kinase inhibitors” (Sugen, Inc., priority 1998, dated 2006)
One block for each molecule: values may come before it.

Tests used:
C6 glioma tumors = C6 glioma tumors subcutaneously implanted in mice, oral administration; format: in vivo; settings: 200 mg/kg/day, day 18 post-implantation, subcutaneous C6 tumors in BALB/c nu/nu mice
Description: The following protocol can be used to perform xenograft experiments:
Female athymic mice (BALB/c, nu/nu) are obtained from Simonsen Laboratories (Gilroy, Calif.). All animals are maintained under clean-room conditions in Micro-isolator cages with Alpha-dri bedding. They receive sterile rodent chow and water ad libitum.
Cell lines are grown in appropriate medium (for example, MEM, DMEM, Ham's F10, or Ham's F12 plus 5%-10% fetal bovine serum (FBS) and 2 mM glutamine (GLN)). All cell culture media, glutamine, and fetal bovine serum are purchased from Gibco Life Technologies (Grand Island, N.Y.) unless otherwise specified. All cells are grown in a humid atmosphere of 90-95% air and 5-10% CO2 at 37° C. All cell lines are routinely subcultured twice a week and are negative for mycoplasma as determined by the Mycotect method (Gibco).
Cells are harvested at or near confluency with 0.05% Trypsin-EDTA and pelleted at 450 x g for 10 min. […] Tumor growth is measured over 3 to 6 weeks using venier calipers. Tumor volumes are calculated as a product of length×width×height unless otherwise indicated. P values are calculated using the Students t-test. […]
The compounds also maintain excellent activity when tested in vivo. […] Tumor growth was measured using vernier calipers and tumor volumes were calculated as the product of length×width×height. […]

PDGFR = molecular target: T1, PDGFR (Homo sapiens, UniProt P09619); assay: Inhibition constant (Ki) against PDGFR; format: biochemical; settings: data not shown
T1 construct: expressed in transfected cells; host or cells: NIH 3T3 cells expressing PDGFR-β (lysate, Screening Lab, SUGEN)

[1] = Potency in vitro (data not shown)
HUV-EC-C cells (VEGF) = assay: HUV-EC-C assay, VEGF-stimulated 3H-thymidine incorporation (HUVEC-VEGF); format: cell-based; settings: Homo sapiens; Table 1
Description: (§1) The following protocol may also be used to measure a compound's activity against PDGF-R, FGF-R, VEGF, aFGF or Flk-1/KDR, all of which are naturally expressed by HUV-EC cells.
(§2) 1. […] After cells have detached from the flask, add an equal volume of assay medium and transfer to a 50 ml sterile centrifuge tube (Fisher Scientific, catalogue no. 05-539-6).
(§3) 2. Wash the cells with about 35 ml assay medium in the 50 ml sterile centrifuge tube by adding the assay medium, centrifuge for 10 minutes at approximately 200x g, aspirate the supernatant, and resuspend with 35 ml D-PBS. Repeat the wash two more times with D-PBS, resuspend the cells in about 1 ml assay medium/is cm^2 of tissue culture flask. Assay medium consists of F12K medium (Gibco BRL, catalogue no. 21127-014) and 0.5% heat-inactivated fetal bovine serum. Count the cells with a Coulter Counter® (Coulter Electronics, Inc.) and add assay medium to the cells to obtain a concentration of 0.8-1.0×10^5 cells/ml.
(§4) 3. Add cells to 96-well flat-bottom plates at 100 μl/well or 0.8-1.0×10^4 cells/well, incubate −24h at 37° C., 5% CO2.
(§5) 1. Make up two-fold test compound titrations in separate 96-well plates, generally 50 μM on down to 0 μM. Use the same assay medium as mentioned in day 0, step 2 above. Titrations are made by adding […] of test compound at 200 μM (4X the final well concentration) to the top well of a particular plate column. Since the stock test compound is usually 20 mM in DMSO, the 200 μM drug concentration contains 2% DMSO.
(§6) A diluent made up to 2% DMSO in assay medium (F12K+0.5% fetal bovine serum) is used as diluent for the test compound titrations in order to dilute the test compound but keep the DMSO concentration constant. Add this diluent to the remaining wells in the column at 60 μl/well. Take 60 μl from the 120 μl of 200 μM test compound dilution in the top well of the column and mix with the 60 μl in the second well of the column. Take 60 μl from this well and mix with the 60 μl in the third well of the column, and so on until two-fold titrations are completed. When the next-to-the-last well is mixed, take 60 μl of the 120 μl in this well and discard it. Leave the last well with 60 μl of DMSO/media diluent as a non-test compound-containing control. Make 9 columns of titrated test compound, enough for triplicate wells each for: (1) VEGF (obtained from Pepro Tech Inc., catalogue no. 100-200, (2) endothelial cell growth factor (ECGF) (also known as acidic fibroblast growth factor, or aFGF) (obtained from Boehringer Mannheim Biochemica, catalogue no. 1439 600), or, (3) human PDGF B/B (1276-956, Boehringer Mannheim, Germany) and assay media control. ECGF comes as a preparation with sodium heparin.
(§7) 2. Transfer 50 μl/well of the test compound dilutions to the 96-well assay plates containing the 0.8-1.0×10^4 cells/100 μl/well of the HUV-EC-C cells from day 0 and incubate […] at 37° C., 5% CO2.
(§8) 3. In triplicate, add 50 μl well of […] VEGF, 20 ng/ml ECGF, or media control to each test compound condition. As with the test compounds, the growth factor concentrations are 4X the desired final concentration. Use the assay media from day 0 step 2 to make the concentrations of growth factors. Incubate approximately 24 hours at 37° C., 5% CO2. Each well will have 50 μl test compound dilution, 50 μl growth factor or media, and 100 μl cells, which calculates to 200 μl/well total. Thus the 4X concentrations of test compound and growth factors become 1X once everything has been added to the wells.
(§9) 1. Add ^3H-thymidine (Amersham, catalogue no. TRK-686) at 1 μCi/well (10 μl/well of 100 μCi/ml solution made up in RPMI media +10% heat-inactivated fetal bovine serum) and incubate ˜24 h at 37° C., 5% CO2. RPMI is obtained from Gibco BRL, catalogue no. 11875-051.
(§10) 1. Freeze plates overnight at −20° C. […]

HUV-EC-C cells (aFGF) = assay: HUV-EC-C assay, aFGF (ECGF)-stimulated 3H-thymidine incorporation (HUVEC-aFGF); format: cell-based; settings: Homo sapiens; Table 1
Description: as §1, §2, §3, §4, §5, §6, §7, §8, §9, §10

T1 sequence (P09619 33-1106): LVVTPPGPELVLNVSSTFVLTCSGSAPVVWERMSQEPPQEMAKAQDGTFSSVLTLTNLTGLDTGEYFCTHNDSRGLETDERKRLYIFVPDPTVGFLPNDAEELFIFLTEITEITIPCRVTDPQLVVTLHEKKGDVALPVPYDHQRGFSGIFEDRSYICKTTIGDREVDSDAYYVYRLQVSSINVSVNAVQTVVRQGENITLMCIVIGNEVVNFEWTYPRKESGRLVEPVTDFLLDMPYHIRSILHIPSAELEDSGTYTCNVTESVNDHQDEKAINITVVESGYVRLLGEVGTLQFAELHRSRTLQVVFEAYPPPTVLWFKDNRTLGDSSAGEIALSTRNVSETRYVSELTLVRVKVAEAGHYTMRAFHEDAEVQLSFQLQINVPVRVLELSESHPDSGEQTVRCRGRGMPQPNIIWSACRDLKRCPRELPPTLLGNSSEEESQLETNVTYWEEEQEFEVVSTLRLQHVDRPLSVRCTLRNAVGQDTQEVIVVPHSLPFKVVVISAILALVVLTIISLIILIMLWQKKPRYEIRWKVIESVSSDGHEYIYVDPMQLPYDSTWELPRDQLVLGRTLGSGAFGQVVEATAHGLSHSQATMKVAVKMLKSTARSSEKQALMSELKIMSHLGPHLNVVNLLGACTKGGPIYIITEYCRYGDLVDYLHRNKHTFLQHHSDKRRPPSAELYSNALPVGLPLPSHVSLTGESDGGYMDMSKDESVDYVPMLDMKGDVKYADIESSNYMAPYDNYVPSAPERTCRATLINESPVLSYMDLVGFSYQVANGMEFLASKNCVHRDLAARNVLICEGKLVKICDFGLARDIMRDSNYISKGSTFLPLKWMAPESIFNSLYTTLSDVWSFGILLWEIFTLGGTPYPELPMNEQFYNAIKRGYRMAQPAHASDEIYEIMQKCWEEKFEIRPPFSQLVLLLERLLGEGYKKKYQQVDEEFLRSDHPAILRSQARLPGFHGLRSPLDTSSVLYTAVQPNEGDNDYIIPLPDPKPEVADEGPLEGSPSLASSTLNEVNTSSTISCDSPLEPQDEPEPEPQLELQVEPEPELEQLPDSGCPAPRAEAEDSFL

Compound: CC1C(CCC(=O)O)=CNC1/C=C1\C(=O)Nc2ccccc21 (stereo not drawn) [Compound 71]
inhibition of tumor growth (C6 glioma tumors): 51%

Ki (inhibition constant) against PDGFR, compared to compound 70 (PDGFR): significantly smaller
Compound: Cc1[nH]c(/C=C2\C(=O)Nc3ccccc32)c(C)c1CCC(=O)O [Example 5, 3-[2,4-Dimethyl-5-(2-oxo-1,2-dihydroindol-3-ylidenemethyl)-1H-pyrrol-3-yl]-propionic acid]

Compound: O=C(O)CCc1c(/C=C2\C(=O)Nc3ccc(Br)cc32)[nH]c2c1CCCC2 [Compound 65]
potency in vitro compared to compound 5 [1]: almost an order of magnitude greater potency in vitro
inhibition of tumor growth (C6 glioma tumors): approximately 65%

IC50 (HUV-EC-C cells (VEGF)): 0.33 µM
Compound: Cc1ccc2c(c1)/C(=C/c1[nH]cc(CCC(=O)O)c1C)C(=O)N2 [Example 9, 3-[4-Methyl-5-(5-methyl-2-oxo-1,2-dihydroindol-3-ylidenemethyl)-1H-pyrrol-3-yl]-propionic acid]
IC50 (HUV-EC-C cells (aFGF)): 13.4 µM
